From patent publication EP0017102A1, “Composition containing a phenyl benzoic acid compound and acetaminophen combination for the treatment of pain and inflammation and process for preparing the same” (Merck & Co., Inc., priority 1979, dated 1980)
Several values for one entry are separate records, joined by “and”; a condition that tells them apart may be missing. Equal values may be shown once.

Legend:
[1] = tested on: adjuvant arthritis induced in rats; conditions: compounds known to be clinically active; cited from earlier work
[2] = tested on: adjuvant arthritis induced in rats; test: adjuvant arthritis analgesic bioassay (tail pinch / foot bend squeak response); format: in vivo, Sprague-Dawley rats
Source text: Since analgesic tests using intact animals are not sensitive enough to detect the analgesic activity of nonsteroidal anti-inflammatory compounds, the analgesic bioassay employed utilized inflammatory sensitization procedures, specifically adjuvant arthritis. Adjuvant arthritis induced in rats, the animals used in the bioassay, resembles rheumatoid arthritis in man with respect to the manifestation of inflammation and hyperalgesia. When the affected joints of rats with adjuvant arthritis are subjected to a gentle manipulation, preferably by extending the joint, the rats respond by squeaking, which is a definite and reproducible sign of algesia. The ability of the tested compounds to suppress this squeaking response was an accurate measure of the analgesic activity of the tested compounds.
In accordance with the adjuvant arthritis bioassay used to evaluate the analgesic activity of the combinations of compounds of the present invention, young adult Sprague-Dawley rats of either sex are rendered hyperalgesic by injection of dessicated Mycobacterium- butyricum suspended in light mineral oil (Freund's adjuvant). The mycobacteria are ground in a mortar, suspended in the oil, and sterilized in an autoclave. Each animal receives 0.5 mg of the bacteria in 0.1 ml of oil, injected subcutaneously through a 21-gauge needle into the distal third of the tail.
The animals can subsequently be used in two ways for testing the analgesic action of drugs. The day after the injection of adjuvant, the tail is found to be sensitive to touch. Approximately 16 hours after the injection, the experimenter tests the animals for the presence of hyperalgesia. This is done by holding the animal in one hand. With the thumb and forefinger of the other hand, the observer applies gentle pressure to the tail about 2.5 cm proximal to the point where the needle has been inserted. This gentle pressure is repeated at 5-sec intervals. If the rat endures five such gentle presses without emitting more than one "squeak", analgesia is considered to be present and a score of + is assigned. Two or more squeaks earns a rating of 0, or no analgesia. Before being assigned to an experiment, animals are screened and only those with the 0 rating are used.
The hyperalgesic animals are assigned randomly to drug treatments and one of the treatments is always the vehicle without the drug (placebo group). […] […] This entire procedure may be referred to as "tail pinch" .technique. Alternatively, an apparatus for applying pressure to the tail may be employed and the "squeak threshold" determined before and after drug.
The adjuvant-injected animals, if left undisturbed, develop severe arthritis which becomes especially manifest in about two weeks. […] This "foot bend" technique yields drug responses essentially identical with those obtained by the "tail pinch" procedure.
For a further description of this bioassay and its significance, reference is made to Kuzuma and Kawai, "Evaluation of Analgesic Agents in Rats with Adjuvant Arthritis", Chem. Pharm. Bull., 23 (6) 1184-1191 (1975).

[3] = in vivo; format: in vivo, mice; conditions: mouse, in vivo, po
Procedure: (§1) Measurements of the relative safety of the components and of the combination were carried out using acute oral toxicity studies in female mice. Randomly selected female albino mice (Carworth CF-1) weighing from 18 to 24 grams, and 6 to 7 weeks old, were used. The LD50 value for each drug was estimated from acute oral dose-response curves previously established. The following dose regimen was utilized:
(§2) The preparations were administered by gastric intubation using a metal catheter attached to a springe. The various doses were administered randomly with 20 mice per group. Food was withheld one to two hours before and three hours following drug treatment. Water was available at all times. […] Body weights were taken pretest and on days 7 and 14.

[4] = tested on: female albino mice (Carworth CF-1); test: in vivo; format: in vivo; conditions: Group V: Acetaminophen 1500 mg./kg. (100 %LD50) alone; oral; 20 tested; 14 days
Procedure: as §1, §2

CC(C)Cc1ccc(CC(=O)O)cc1 [ibufenac]
results in the adjuvant arthritis analgesic bioassay [1]: positive, dose-dependent, reproducible results

CC(=O)Oc1ccccc1C(=O)O [aspirin]
results in the adjuvant arthritis analgesic bioassay [1]: positive, dose-dependent, reproducible results

CC(=O)Nc1ccc(O)cc1 [APAP, acetaminophen]
Number of Rats with Analgesia ([2]; 1/2 h after administration, dose 200 mg./kg., 8 rats per dose): 2 | Percent of Rats with Analgesia APAP Alone ([2]; 1 Hrs. after drug, APAP 25 mg./kg., 10 rats per dose): 10% | Percent of Rats with Analgesia APAP Alone ([2]; 1 Hrs. after drug, APAP 200 mg./kg., 8 rats per dose): 25% and 37.5% | Percent of Rats with Analgesia APAP Alone ([2]; 2 Hrs. after drug, APAP 50 mg./kg., 10 rats per dose): 0% | Percent of Rats with Analgesia APAP Alone ([2]; 3 Hrs. after drug, APAP 100 mg./kg., 8 rats per dose): 0% | Percent of Rats with Analgesia APAP Alone ([2]; 3 Hrs. after drug, APAP 100 mg./kg., 10 rats per dose): 0% | Percent of Rats with Analgesia APAP Alone ([2]; 4 Hrs. after drug, APAP 25 mg./kg., 10 rats per dose): 0% | Percent of Rats with Analgesia APAP Alone ([2]; 4 Hrs. after drug, APAP 50 mg./kg., 10 rats per dose): 0% | Percent of Rats with Analgesia APAP Alone ([2]; 4 Hrs. after drug, APAP 100 mg./kg., 8 rats per dose): 0% | Percent of Rats with Analgesia APAP Alone ([2]; 4 Hrs. after drug, APAP 100 mg./kg., 10 rats per dose): 0% | Percent of Rats with Analgesia APAP Alone ([2]; 5 Hrs. after drug, APAP 100 mg./kg., 8 rats per dose): 0% | Percent of Rats with Analgesia APAP Alone ([2]; 5 Hrs. after drug, APAP 200 mg./kg., 8 rats per dose): 25% | Number of Rats with Analgesia ([2]; 1 h after administration, dose 25 mg./kg., 10 rats per dose): 1 | Number of Rats with Analgesia ([2]; 1 h after administration, dose 50 mg./kg., 10 rats per dose): 1 | Number of Rats with Analgesia ([2]; 1 h after administration, dose 100 mg./kg., 10 rats per dose): 3 | Number of Rats with Analgesia ([2]; 1 h after administration, dose 200 mg./kg., 8 rats per dose): 2 and 3 | Number of Rats with Analgesia ([2]; 1 h after administration, dose 400 mg./kg., 8 rats per dose): 6 and 4 | Number of Rats with Analgesia ([2]; 2 h after administration, dose 25 mg./kg., 10 rats per dose): 0 | Number of Rats with Analgesia ([2]; 2 h after administration, dose 50 mg./kg., 10 rats per dose): 0 | Number of Rats with Analgesia ([2]; 2 h after administration, dose 100 mg./kg., 8 rats per dose): 1 | Number of Rats with Analgesia ([2]; 2 h after administration, dose 100 mg./kg., 10 rats per dose): 2 | Number of Rats with Analgesia ([2]; 2 h after administration, dose 200 mg./kg., 8 rats per dose): 4 and 3 | Number of Rats with Analgesia ([2]; 2 h after administration, dose 400 mg./kg., 8 rats per dose): 7 | Number of Rats with Analgesia ([2]; 3 h after administration, dose 25 mg./kg., 10 rats per dose): 0 | Number of Rats with Analgesia ([2]; 3 h after administration, dose 50 mg./kg., 10 rats per dose): 0 | Number of Rats with Analgesia ([2]; 3 h after administration, dose 100 mg./kg., 10 rats per dose): 0 | Number of Rats with Analgesia ([2]; 3 h after administration, dose 200 mg./kg., 8 rats per dose): 4 | Number of Rats with Analgesia ([2]; 3 h after administration, dose 400 mg./kg., 8 rats per dose): 6 | Number of Rats with Analgesia ([2]; 4 h after administration, dose 25 mg./kg., 10 rats per dose): 0 | Number of Rats with Analgesia ([2]; 4 h after administration, dose 50 mg./kg., 10 rats per dose): 0 | Number of Rats with Analgesia ([2]; 4 h after administration, dose 100 mg./kg., 8 rats per dose): 0 | Number of Rats with Analgesia ([2]; 4 h after administration, dose 100 mg./kg., 10 rats per dose): 0 | Number of Rats with Analgesia ([2]; 4 h after administration, dose 200 mg./kg., 8 rats per dose): 4 | Number of Rats with Analgesia ([2]; 4 h after administration, dose 400 mg./kg., 8 rats per dose): 5 and 4 | Number of Rats with Analgesia ([2]; 5 h after administration, dose 25 mg./kg., 10 rats per dose): 0 | Number of Rats with Analgesia ([2]; 5 h after administration, dose 50 mg./kg., 10 rats per dose): 0 | Number of Rats with Analgesia ([2]; 5 h after administration, dose 100 mg./kg., 8 rats per dose): 0 | Number of Rats with Analgesia ([2]; 5 h after administration, dose 100 mg./kg., 10 rats per dose): 0 | Number of Rats with Analgesia ([2]; 5 h after administration, dose 200 mg./kg., 8 rats per dose): 2 and 1 | Number of Rats with Analgesia ([2]; 5 h after administration, dose 400 mg./kg., 8 rats per dose): 2 and 3 | Number of Rats with Analgesia ([2]; 6 h after administration, dose 25 mg./kg., 10 rats per dose): 0 | Number of Rats with Analgesia ([2]; 6 h after administration, dose 50 mg./kg., 10 rats per dose): 0 | Number of Rats with Analgesia ([2]; 6 h after administration, dose 100 mg./kg., 8 rats per dose): 0 | Number of Rats with Analgesia ([2]; 6 h after administration, dose 100 mg./kg., 10 rats per dose): 0 | Number of Rats with Analgesia ([2]; 6 h after administration, dose 400 mg./kg., 8 rats per dose): 1 | Total Positives ([2]; sum over 1/2, 1 and 2 h, dose 200 mg./kg., 8 rats per dose): 7 | Total Positives ([2]; sum over 1 and 2 h, dose 100 mg./kg., 10 rats per dose): 5 | LD50 [3]: 1500 mg/kg | No. Dead [4]: 16

COc1ccc2c(c1)c(CC(=O)O)c(C)n2C(=O)c1ccc(Cl)cc1 [indomethacin]
results in the adjuvant arthritis analgesic bioassay [1]: positive, dose-dependent, reproducible results
